From ChEMBL document CHEMBL2407074, “Three dimensional structure of a bacterial α-l-fucosidase with a 5-membered iminocyclitol inhibitor” (Bioorg Med Chem, 2013)

Assays:
[1] = Inhibition of Bacteroides thetaiotaomicron recombinant alpha-L-fucosidase using 2-chloro-4-nitrophenyl-alpha-L-fucopyranoside as substrate after 5 mins by Michaelis Menten equation analysis
[2] = Inhibition of bovine kidney fucosidase; set-up: species or system Bos taurus

Ki [1]: 2000 nM
Ki [2]: 80 nM
SMILES: C[C@@H]1N[C@@H](c2nc3ccccc3[nH]2)[C@H](O)[C@@H]1O
